Experiments:
[1] = tested on: Mus musculus; assay: Range of survival days for antitumor activity against Ip implanted L1210 / ara-C lymphoid leukemia in mice at a dose of 300 mg/kg per day; format: functional; conditions: route intraperitoneal
[2] = tested on: Mus musculus; assay: Increase of life span was determined against Ip implanted L1210 / 0 lymphoid leukemia in mice at a dose of 400 mg/kg per day after treatment 1; format: functional; conditions: L1210/0, ip, route intraperitoneal
[3] = tested on: Mus musculus; assay: Range of survival days for antitumor activity against Ip implanted L1210 / 0 lymphoid leukemia in mice at a dose of 300 mg/kg per day after treatment 5;range is 15-21; format: functional; conditions: route intraperitoneal
[4] = tested on: Mus musculus; assay: Range of survival days for antitumor activity against Ip implanted L1210 / 0 lymphoid leukemia in mice at a dose of 400 mg/kg per day after treatment 5;[…]; format: functional; conditions: route intraperitoneal
[5] = tested on: Mus musculus; assay: Range of survival days for antitumor activity against Ip implanted L1210 / 0 lymphoid leukemia in mice at a dose of 400 mg/kg per day after treatment 1;range is 16->45; format: functional; conditions: route intraperitoneal
[6] = tested on: Mus musculus; assay: Range of survival days for antitumor activity against Ip implanted L1210 / ara-C lymphoid leukemia in mice at a dose of 60 mg/kg per day; format: functional; conditions: route intraperitoneal
[7] = tested on: Mus musculus; assay: Survival time treated/survival time tested (T/C) for antitumor activity against Ip implanted L1210 / ara-C lymphoid leukemia in mice at a dose of 167 mg/kg per day; format: functional; conditions: route intraperitoneal
[8] = tested on: Mus musculus; assay: Range of survival days for antitumor activity against Ip implanted L1210 / ara-C lymphoid leukemia in mice at a dose of 167 mg/kg per day; format: functional; conditions: route intraperitoneal
[9] = tested on: Mus musculus; assay: Survival time treated/survival time tested (T/C) for antitumor activity against Ip implanted L1210 / ara-C lymphoid leukemia in mice at a dose of 300 mg/kg per day; format: functional; conditions: route intraperitoneal
[10] = tested on: Mus musculus; assay: Range of survival days for antitumor activity against Ip implanted L1210 / 0 lymphoid leukemia in mice at a dose of 300 mg/kg per day after treatment 1;range is 18-30; format: functional; conditions: route intraperitoneal
[11] = tested on: Mus musculus; assay: Survival time treated / survival time (T/C) for antitumor activity against Ip implanted L1210 / 0 lymphoid leukemia in mice at a dose of 300 mg/kg per day after treatment 5;17/8; format: functional; conditions: route intraperitoneal
[12] = tested on: Mus musculus; assay: Survival time treated / survival time (T/C) for antitumor activity against Ip implanted L1210 / 0 lymphoid leukemia in mice at a dose of 400 mg/kg per day after treatment 1;27.5/7; format: functional; conditions: route intraperitoneal
[13] = tested on: Mus musculus; assay: Increase of life span was determined against Ip implanted L1210 / 0 lymphoid leukemia in mice at a dose of 400 mg/kg per day after treatment 5; format: functional; conditions: L1210/0, ip, route intraperitoneal
[14] = tested on: Mus musculus; assay: Increase of life span was determined against Ip implanted L1210 / 0 lymphoid leukemia in mice at a dose of 100 mg/kg per day after treatment 1-5; format: functional; conditions: L1210/0, ip, route intraperitoneal
[15] = tested on: Mus musculus; assay: Survival time treated/survival time tested (T/C) for antitumor activity against Ip implanted L1210 / ara-C lymphoid leukemia in mice at a dose of 60 mg/kg per day; format: functional; conditions: route intraperitoneal
[16] = tested on: Mus musculus; assay: Increase of life span was determined against Ip implanted L1210 / 0 lymphoid leukemia in mice at a dose of 60 mg/kg per day after treatment 1-5; format: functional; conditions: L1210/0, ip, route intraperitoneal
[17] = tested on: Mus musculus; assay: Increase of life span was determined against Ip implanted L1210 / ara-C lymphoid leukemia in mice at a dose of 60 mg/kg per day; format: functional; conditions: route intraperitoneal
[18] = tested on: Mus musculus; assay: Range of survival days for antitumor activity against Ip implanted L1210 / 0 lymphoid leukemia in mice at a dose of 100 mg/kg per day after treatment 1-5;range is 14->45; format: functional; conditions: route intraperitoneal
[19] = tested on: Mus musculus; assay: Increase of life span was determined against Ip implanted L1210 / ara-C lymphoid leukemia in mice at a dose of 300 mg/kg per day; format: functional; conditions: route intraperitoneal
[20] = tested on: Mus musculus; assay: Increase of life span was determined against Ip implanted L1210 / 0 lymphoid leukemia in mice at a dose of 300 mg/kg per day after treatment 5; format: functional; conditions: L1210/0, ip, route intraperitoneal
[21] = tested on: Mus musculus; assay: Survival time treated / survival time (T/C) for antitumor activity against Ip implanted L1210 / 0 lymphoid leukemia in mice at a dose of 60 mg/kg per day after treatment 1-5;26.5/8; format: functional; conditions: route intraperitoneal
[22] = tested on: Mus musculus; assay: Survival time treated / survival time (T/C) for antitumor activity against Ip implanted L1210 / 0 lymphoid leukemia in mice at a dose of 100 mg/kg per day after treatment 1-5;36.5/8; format: functional; conditions: route intraperitoneal
[23] = tested on: Mus musculus; assay: Survival time treated / survival time (T/C) for antitumor activity against Ip implanted L1210 / 0 lymphoid leukemia in mice at a dose of 400 mg/kg per day after treatment 5;16.5/8; format: functional; conditions: route intraperitoneal
[24] = tested on: Mus musculus; assay: Survival time treated / survival time (T/C) for antitumor activity against Ip implanted L1210 / 0 lymphoid leukemia in mice at a dose of 300 mg/kg per day after treatment 1;25/7; format: functional; conditions: route intraperitoneal
[25] = tested on: Mus musculus; assay: Increase of life span was determined against Ip implanted L1210 / ara-C lymphoid leukemia in mice at a dose of 167 mg/kg per day; format: functional; conditions: route intraperitoneal
[26] = tested on: Mus musculus; assay: Range of survival days for antitumor activity against Ip implanted L1210 / 0 lymphoid leukemia in mice at a dose of 60 mg/kg per day after treatment 1-5;range is 16-37; format: functional; conditions: route intraperitoneal
[27] = tested on: Mus musculus; assay: Increase of life span was determined against Ip implanted L1210 / 0 lymphoid leukemia in mice at a dose of 300 mg/kg per day after treatment 1; format: functional; conditions: L1210/0, ip, route intraperitoneal
[28] = tested on: Mus musculus; assay: Increase of life span was determined against Ip implanted L1210 / 0 lymphoid leukemia in mice at a dose of 200 mg/kg per day after treatment 1; format: functional; conditions: L1210/0, ip, route intraperitoneal
[29] = tested on: Mus musculus; assay: Survival time treated / survival time (T/C) for antitumor activity against Ip implanted L1210 / 0 lymphoid leukemia in mice at a dose of 200 mg/kg per day after treatment 1;7.5/8; format: functional; conditions: route intraperitoneal
[30] = tested on: Mus musculus; assay: Increase of life span was determined against Ip implanted L1210 / 0 lymphoid leukemia in mice at a dose of 100 mg/kg per day after treatment 1; format: functional; conditions: L1210/0, ip, route intraperitoneal
[31] = tested on: Mus musculus; assay: Range of survival days for antitumor activity against Ip implanted L1210 / 0 lymphoid leukemia in mice at a dose of 100 mg/kg per day after treatment 1; range is 9-10; format: functional; conditions: route intraperitoneal
[32] = tested on: Mus musculus; assay: Survival time treated / survival time (T/C) for antitumor activity against Ip implanted L1210 / 0 lymphoid leukemia in mice at a dose of 100 mg/kg per day after treatment 1;9.5/8; format: functional; conditions: route intraperitoneal
[33] = tested on: Mus musculus; assay: Range of survival days for antitumor activity against Ip implanted L1210 / 0 lymphoid leukemia in mice at a dose of 200 mg/kg per day after treatment 1; range is 4-12; format: functional; conditions: route intraperitoneal
[34] = tested on: Mus musculus; assay: Range of survival days for antitumor activity against Ip implanted L1210 / 0 lymphoid leukemia in mice at a dose of 100 mg/kg per day after treatment 1- 5; range is 15-32; format: functional; conditions: route intraperitoneal
[35] = tested on: Mus musculus; assay: Survival time treated / survival time (T/C) for antitumor activity against Ip implanted L1210 / 0 lymphoid leukemia in mice at a dose of 100 mg/kg per day after treatment 1-5;21.5/8; format: functional; conditions: route intraperitoneal
[36] = tested on: Mus musculus; assay: Increase of life span was determined against Ip implanted L1210 / 0 lymphoid leukemia in mice at a dose of 80 mg/kg per day after treatment 1-5; format: functional; conditions: L1210/0, ip, route intraperitoneal
[37] = tested on: Mus musculus; assay: Survival time treated / survival time (T/C) for antitumor activity against Ip implanted L1210 / 0 lymphoid leukemia in mice at a dose of 400 mg/kg per day after treatment 1;14/8; format: functional; conditions: route intraperitoneal
[38] = tested on: Mus musculus; assay: Survival time treated / survival time (T/C) for antitumor activity against Ip implanted L1210 / 0 lymphoid leukemia in mice at a dose of 80 mg/kg per day after treatment 1-5;16/8; format: functional; conditions: route intraperitoneal
[39] = tested on: Mus musculus; assay: Range of survival days for antitumor activity against Ip implanted L1210 / 0 lymphoid leukemia in mice at a dose of 400 mg/kg per day after treatment 1; range is 11-15; format: functional; conditions: route intraperitoneal
[40] = tested on: Mus musculus; assay: Range of survival days for antitumor activity against Ip implanted L1210 / 0 lymphoid leukemia in mice at a dose of 80 mg/kg per day after treatment 1-5; range is 14-19; format: functional; conditions: route intraperitoneal
[41] = tested on: Mus musculus; assay: Increase of life span was determined against Ip implanted L1210 / 0 lymphoid leukemia in mice at a dose of 200 mg/kg per day after treatment 1-5; format: functional; conditions: L1210/0, ip, route intraperitoneal
[42] = tested on: Mus musculus; assay: Range of survival days for antitumor activity against Ip implanted L1210 / 0 lymphoid leukemia in mice at a dose of 200 mg/kg per day after treatment 1-5; range is 15-17; format: functional; conditions: route intraperitoneal
[43] = tested on: Mus musculus; assay: Survival time treated for antitumor activity against Ip implanted L1210 / 0 lymphoid leukemia in mice at a dose of 200 mg/kg per day after treatment 1-5;16/7; conditions: route intraperitoneal
[44] = tested on: Mus musculus; assay: Survival time treated for antitumor activity against Ip implanted L1210 / 0 lymphoid leukemia in mice at a dose of 400 mg/kg per day after treatment 1;8/7; conditions: route intraperitoneal
[45] = tested on: Mus musculus; assay: Survival time treated for antitumor activity against Ip implanted L1210 / 0 lymphoid leukemia in mice at a dose of 400 mg/kg per day after treatment 5;10/7; conditions: route intraperitoneal
[46] = tested on: Mus musculus; assay: Range of survival days for antitumor activity against Ip implanted L1210 / 0 lymphoid leukemia in mice at a dose of 400 mg/kg per day after treatment 1; range is 8-10; format: functional; conditions: route intraperitoneal
[47] = tested on: Mus musculus; assay: Range of survival days for antitumor activity against Ip implanted L1210 / 0 lymphoid leukemia in mice at a dose of 400 mg/kg per day after treatment 5; format: functional; conditions: route intraperitoneal

With `CCCCCCCCCCCCCCCCSCC(COP(=O)(O)OP(=O)(O)OC[C@H]1OC(n2ccc(N)nc2=O)[C@@H](O)[C@@H]1O)OC(=O)CCCCCCCCCCCCCCC` (mixture of isomers) the Range [1] was over 45, the ILS at 400 mg/kg/day [2] was 293% and the “Range of survival days” value [3] was 15. The “Range of survival days” value [4] was 15, the “Range of survival days” value [5] was over 16 and the Range [6] was over 29. It also gave a T/C [7] of 41, a Range [8] of over 7 and a T/C [9] of over 45. For the same compound, the “Range of survival days” value [10] was 18, the T/C [11] was 17 and the T/C [12] was 27.5. For the same compound, the ILS at 400 mg/kg/day [13] was 106%, the ILS at 100 mg/kg/day [14] was 356% and the T/C [15] was over 41. The ILS at 60 mg/kg/day [16] was 231%, the ILS at 60 mg/kg/day [17] was over 356% and the “Range of survival days” value [18] was over 14. For the same compound, the ILS at 300 mg/kg/day [19] was over 400%, the ILS at 300 mg/kg/day [20] was 113% and the T/C [21] was 26.5. It also gave a T/C [22] of 36.5, a T/C [23] of 16.5 and a T/C [24] of 25. The ILS at 167 mg/kg/day [25] was 310%, the “Range of survival days” value [26] was 16 and the ILS at 300 mg/kg/day [27] was 257%.
Work on `CCCCCCCCCCCCCCCCCCSCC(COP(=O)(O)OP(=O)(O)OC[C@H]1OC(n2ccc(N)nc2=O)[C@@H](O)[C@@H]1O)OCC` (mixture of isomers) yielded an ILS at 200 mg/kg/day [28] of -6%, a T/C [29] of 7.5 and an ILS at 100 mg/kg/day [30] of 19%. The “Range of survival days” value [31] was 9, the T/C [32] was 9.5 and the “Range of survival days” value [33] was 4.
In the case of `CCCCCCCCCCCCCCCCCCSCC(COP(=O)(O)OP(=O)(O)OC[C@H]1OC(n2ccc(N)nc2=O)[C@@H](O)[C@@H]1O)OCCCCCCCCCCCCCCCC` (mixture of isomers), the “Range of survival days” value [34] is reported as 15, the ILS at 400 mg/kg/day [2] is reported as 75% and the T/C [35] is reported as 21.5. It also gave an ILS at 80 mg/kg/day [36] of 100%, a T/C [37] of 14 and a T/C [38] of 16. For the same compound, the ILS at 100 mg/kg/day [14] was 169%, the “Range of survival days” value [39] was 11 and the “Range of survival days” value [40] was 14.
In the case of `Nc1ccn([C@@H]2O[C@H](CO)[C@@H](O)[C@@H]2O)c(=O)n1` [CYTARABINE], the ILS at 400 mg/kg/day [2] is reported as 14%, the ILS at 200 mg/kg/day [41] is reported as 129% and the “Range of survival days” value [42] is reported as 15. It also gave a survival time [43] of 16 days, an ILS at 400 mg/kg/day [13] of 43% and a survival time [44] of 8 days. For the same compound, the survival time [45] was 10 days, the “Range of survival days” value [46] was 8 and the “Range of survival days” value [47] was 10.

Source: ChEMBL document CHEMBL1124763, “Nucleoside conjugates. 11. Synthesis and antitumor activity of 1-beta-D-arabinofuranosylcytosine and cytidine conjugates of thioether lipids” (1990)
